PubChem BioAssay (NCI)
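Exposure lasted 48 hours, with cells grown in 96-well plates and compounds tested at five concentrations. GI50 marks 50% less growth. TGI: concentration producing complete growth inhibition.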

Assays:
Assay in all cases: DTP human tumour cell line panel, 48 h
[1] = system: 786-0 renal
[2] = system: A498 renal
[3] = system: A549 NSCLC
[4] = system: ACHN renal
[5] = system: BT-549 breast
[6] = system: CAKI-1 renal
[7] = system: CCRF-CEM leukemia
[8] = system: COLO 205 colon
[9] = system: DU-145 prostate
[10] = system: EKVX NSCLC
[11] = system: HCC-2998 colon
[12] = system: HCT-116 colon
[13] = system: HCT-15 colon
[14] = system: HL-60(TB) leukemia
[15] = system: HOP-62 NSCLC
[16] = system: HOP-92 NSCLC
[17] = system: HS 578T breast
[18] = system: HT29 colon
[19] = system: IGROV1 ovarian
[20] = system: K-562 leukemia
[21] = system: KM12 colon
[22] = system: LOX IMVI melanoma
[23] = system: M14 melanoma
[24] = system: MALME-3M melanoma
[25] = system: MCF7 breast
[26] = system: MDA-MB-231 breast
[27] = system: MDA-MB-435
[28] = system: MOLT-4 leukemia
[29] = system: NCI-H226 lung
[30] = system: NCI-H23 lung
[31] = system: NCI-H460 lung
[32] = system: NCI-H522 lung
[33] = system: NCI/ADR-RES ovarian
[34] = system: OVCAR-3 ovarian
[35] = system: OVCAR-4 ovarian
[36] = system: OVCAR-5 ovarian
[37] = system: OVCAR-8 ovarian
[38] = system: PC-3 prostate
[39] = system: RPMI-8226 leukemia
[40] = system: RXF 393 renal
[41] = system: SF-268 CNS
[42] = system: SF-295 CNS
[43] = system: SF-539 CNS
[44] = system: SK-MEL-2 melanoma
[45] = system: SK-MEL-28 melanoma
[46] = system: SK-MEL-5 melanoma
[47] = system: SK-OV-3 ovarian
[48] = system: SN12C renal
[49] = system: SNB-19 CNS
[50] = system: SNB-75 CNS
[51] = system: SR leukemia
[52] = system: SW-620 colon
[53] = system: T-47D breast
[54] = system: TK-10 renal
[55] = system: U251 CNS
[56] = system: UACC-257 melanoma
[57] = system: UACC-62 melanoma
[58] = system: UO-31 renal

COC(=O)[C@]12CC[C@@H](C)[C@H](C)[C@@H]1C1=CC[C@@H]3[C@@]4(C)C/C(=N\O)[C@H](O)[C@@]5(C)COC(=C45)C[C@@]3(C)[C@]1(C)CC2
GI50 [1]: 1760 nM | TGI [1]: 3.26 µM | GI50 [2]: 9.94 µM | TGI [2]: 21.9 µM | GI50 [3]: 10.4 µM | TGI [3]: 24.4 µM | GI50 [4]: 2580 nM | TGI [4]: 7.41 µM | GI50 [5]: 15.7 µM | TGI [5]: 34.8 µM | GI50 [6]: 11.2 µM | TGI [6]: 24.7 µM | GI50 [7]: 2790 nM | TGI [7]: 8.83 µM | GI50 [8]: 7.75 µM | TGI [8]: 21.8 µM | GI50 [9]: 8.57 µM | TGI [9]: 22.8 µM | GI50 [10]: 10.3 µM | TGI [10]: 24.3 µM | GI50 [11]: 11.5 µM | TGI [11]: 24.9 µM | GI50 [12]: 2420 nM | TGI [12]: 7.11 µM | GI50 [13]: 5.47 µM | TGI [13]: 17.7 µM | GI50 [14]: 3.64 µM | TGI [14]: 13.2 µM | GI50 [15]: 12.3 µM | TGI [15]: 26.3 µM | GI50 [16]: 2980 nM | TGI [16]: 10.3 µM | GI50 [17]: 11.4 µM | TGI [17]: 32.5 µM | GI50 [18]: 2880 nM | TGI [18]: 9.31 µM | GI50 [19]: 8.87 µM | TGI [19]: 25.1 µM | GI50 [20]: 3.77 µM | TGI [20]: 14.9 µM | GI50 [21]: 5.77 µM | TGI [21]: 20.2 µM | GI50 [22]: 4.6 µM | TGI [22]: 17 µM | GI50 [23]: 14.2 µM | TGI [23]: 27.7 µM | GI50 [24]: 15.9 µM | TGI [24]: 34.2 µM | GI50 [25]: 3.5 µM | TGI [25]: 15.3 µM | GI50 [26]: 3.84 µM | TGI [26]: 16 µM | GI50 [27]: 8.28 µM | TGI [27]: 22.2 µM | GI50 [28]: 2970 nM | TGI [28]: 10.8 µM | GI50 [29]: 14.8 µM | TGI [29]: 33.5 µM | GI50 [30]: 6.89 µM | TGI [30]: 22.3 µM | GI50 [31]: 3.29 µM | TGI [31]: 10.7 µM | GI50 [32]: 14.1 µM | TGI [32]: 30.1 µM | GI50 [33]: 2610 nM | TGI [33]: 7.88 µM | GI50 [34]: 5.47 µM | TGI [34]: 18.2 µM | GI50 [35]: 4.46 µM | TGI [35]: 18.6 µM | GI50 [36]: 15.9 µM | TGI [36]: 33.6 µM | GI50 [37]: 10 µM | TGI [37]: 26.6 µM | GI50 [38]: 2340 nM | TGI [38]: 6.51 µM | GI50 [39]: 2670 nM | TGI [39]: 6.82 µM | GI50 [40]: 2410 nM | TGI [40]: 7.36 µM | GI50 [41]: 12.6 µM | TGI [41]: 30 µM | GI50 [42]: 4.82 µM | TGI [42]: 17.1 µM | GI50 [43]: 9.05 µM | TGI [43]: 22.4 µM | GI50 [44]: 13.4 µM | TGI [44]: 28.9 µM | GI50 [45]: 15 µM | TGI [45]: 33.7 µM | GI50 [46]: 13.1 µM | TGI [46]: 25.8 µM | GI50 [47]: 16.6 µM | TGI [47]: 30.5 µM | GI50 [48]: 5.79 µM | TGI [48]: 21.2 µM | GI50 [49]: 10.5 µM | TGI [49]: 31.5 µM | GI50 [50]: 3.51 µM | TGI [50]: 21.4 µM | GI50 [51]: 2330 nM | TGI [51]: 5.77 µM | GI50 [52]: 8.42 µM | TGI [52]: 21.9 µM | GI50 [53]: 9.3 µM | TGI [53]: 25.7 µM | GI50 [54]: 18.3 µM | TGI [54]: 33.9 µM | GI50 [55]: 3.02 µM | TGI [55]: 9.79 µM | GI50 [56]: 18.6 µM | TGI [56]: 34.5 µM | GI50 [57]: 12.6 µM | TGI [57]: 27.1 µM | GI50 [58]: 12.3 µM | TGI [58]: 29.2 µM
